Like-named read-outs stand apart in the source and are kept apart here.
Experiments:
[1] = tested on: RD-ES Ewing sarcoma cells (EWS-FLI1 Type 2); test: 72 h GI50 assay in RD-ES; details: read-out: RD-ES EWS-FLI1 Type 2 GI50; 72 h growth inhibition
DU 145 cells = test: 72 h GI50 assay in DU 145; details: read-out: DU 145 GI50; 72 h growth inhibition
[2] = tested on: Ewing sarcoma cell lines (TC-32, 5838, RD-ES, TC-71, A-673, ES-2, ES-7, ES-8); test: Median GI50 in panel of Ewing sarcoma cell lines
A549 cells = test: 72 h GI50 assay in A549; details: read-out: A549 GI50; 72 h growth inhibition
HCT 116 cells = test: 72 h GI50 assay in HCT 116; details: read-out: HCT 116 GI50; 72 h growth inhibition
[3] = tested on: TC-32 (Ewing sarcoma, EWS-FLI1 Type 1) cell line; details: for TC-32 Ewing sarcoma EWS-FLI1 Type 1 GI50: 72 h growth inhibition, TC-32 cells; for GI50 ratio PC-3:TC-32: selectivity, GI50 in PC-3 over GI50 in TC-32
[4] = tested on: TC-71 Ewing sarcoma cells (EWS-FLI1 Type 1); details: 72 h growth inhibition
PANC-1 cells = test: 72 h GI50 assay in PANC-1; details: read-out: PANC-1 GI50; 72 h growth inhibition
[5] = tested on: ES-2 Ewing sarcoma cells (EWS-FLI1 Type 3); test: 72 h GI50 assay in ES-2; details: read-out: ES-2 EWS-FLI1 Type 3 GI50; 72 h growth inhibition
HeLa cells = test: 72 h GI50 assay in HeLa; details: read-out: HeLa GI50; 72 h growth inhibition
[6] = tested on: ES-8 Ewing sarcoma cells (EWS-FLI1 Type 2); test: 72 h GI50 assay in ES-8; details: read-out: ES-8 EWS-FLI1 Type 2 GI50; 72 h growth inhibition
DMS 114 cells = test: 72 h GI50 assay in DMS 114; details: read-out: DMS 114 GI50; 72 h growth inhibition
[7] = tested on: ES-7 Ewing sarcoma cells (EWS-FLI1 Type 4); test: 72 h GI50 assay in ES-7; details: read-out: ES-7 EWS-FLI1 Type 4 GI50; 72 h growth inhibition
[8] = tested on: PC-3 (prostate cancer, no ETS translocation) cell line; test: 72 h growth inhibition (GI50) assay in PC-3; details: read-out: PC-3 Prostate cancer No ETS Translocation GI50
[9] = tested on: 5838 Ewing sarcoma cells (EWS-ERG); test: 72 h GI50 assay in 5838
[10] = tested on: VCaP prostate cancer cells (TMPRSS2-ERG); test: 72 h GI50 assay in VCaP
[11] = tested on: A-673 Ewing sarcoma cells (EWS-FLI1 Type 1); test: 72 h GI50 assay in A-673; details: read-out: A-673 EWS-FLI1 Type 1 GI50; 72 h growth inhibition
[12] = 72 h growth inhibition, PC-3 cells

Compound | TC-32 Ewing sarcoma EWS-FLI1 Type 1 GI50 [3] [nM] | GI50 [8, 12] [nM] | GI50 ratio PC-3:TC-32 [3] | further results
Mithramycin SA Phenylalanine [MTMSA-Phe (4), reference compound] | 32 | 910 |  | GI50 [1]: 91 nM; GI50 (DU 145 cells): 315 nM; GI50 ([2]; read-out: Median GI50 in Ewing sarcoma cell lines, median over 8 Ewing sarcoma cell lines, 72 h): 117 nM; GI50 (A549 cells): 1240 nM; GI50 (HCT 116 cells): 256 nM; TC-71 EWS-FLI1 Type 1 GI50 [4]: 143 nM; GI50 (PANC-1 cells): 261 nM; GI50 [5]: 261 nM; GI50 (HeLa cells): 545 nM; GI50 [6]: 72 nM; GI50 (DMS 114 cells): 483 nM; GI50 [7]: 156 nM
COC(=O)C(Cc1cn(C)c2ccccc12)NC(=O)C(Cc1cn(C)c2ccccc12)NC(=O)C(OC)C1Cc2cc3cc(OC4CC(OC5CC(O)C(O)C(C)O5)C(O)C(C)O4)c(C)c(O)c3c(O)c2C(=O)C1OC1CC(OC2CC(OC3CC(C)(O)C(O)C(C)O3)C(O)C(C)O2)C(O)C(C)O1 (centres unmarked) [Analogue 62] | 7834 | > 10000 |  | 
COC(=O)C(Cc1cn(Cc2ccccc2)c2ccccc12)NC(=O)C(OC)C1Cc2cc3cc(OC4CC(OC5CC(O)C(O)C(C)O5)C(O)C(C)O4)c(C)c(O)c3c(O)c2C(=O)C1OC1CC(OC2CC(OC3CC(C)(O)C(O)C(C)O3)C(O)C(C)O2)C(O)C(C)O1 (centres unmarked) [Analogue 46] | 2297 | > 10000 |  | 
COC(=O)C(Cc1c[nH]c2cc(-n3cc(-c4ccccc4)nn3)ccc12)NC(=O)C(OC)C1Cc2cc3cc(OC4CC(OC5CC(O)C(O)C(C)O5)C(O)C(C)O4)c(C)c(O)c3c(O)c2C(=O)C1OC1CC(OC2CC(OC3CC(C)(O)C(O)C(C)O3)C(O)C(C)O2)C(O)C(C)O1 (centres unmarked) [Analogue 54] | 1030 | 5880 | 5.7 | 
COC(=O)C(Cc1ccccc1)NC(=O)C(Cc1ccccc1)NC(=O)C(OC)C1Cc2cc3cc(OC4CC(OC5CC(O)C(O)C(C)O5)C(O)C(C)O4)c(C)c(O)c3c(O)c2C(=O)C1OC1CC(OC2CC(OC3CC(C)(O)C(O)C(C)O3)C(O)C(C)O2)C(O)C(C)O1 (centres unmarked) [Analogue 63, MTMSA-Phe-Phe] | 232 | 1130 | 4.9 | GI50 [1]: 3050 nM; GI50 (DU 145 cells): 159 nM; Ratio of Median GI50 non-Ewing sarcoma:Ewing sarcoma (Selectivity Index) ([2]; median GI50 non-Ewing panel over Ewing panel): 3.5; Selectivity Index ratio Analogues:MTM (1) ([2]; selectivity index relative to MTM (1)): 2.3; GI50 (HCT 116 cells): 437 nM; TC-71 EWS-FLI1 Type 1 GI50 [4]: 211 nM; GI50 ([9]; read-out: 5838 Ewing Sarcoma EWS-ERG GI50, 72 h growth inhibition, 5838 cells): 579 nM; Ratio of median GI50 Non-Ewing sarcoma cell lines (cf Table 3):5838 ([9]; selectivity for 5838 cells): 3.4; GI50 ([10]; read-out: VCaP Prostate Cancer TMPRSS2-ERG GI50, 72 h growth inhibition, VCaP cells): 442 nM; Ratio of median GI50 Prostate cells lacking TMPRSS2-ERG:VCaP ([10]; selectivity for VCaP over other prostate cancer cell lines): 2.6; GI50 (PANC-1 cells): 1960 nM; GI50 [11]: 491 nM; GI50 (HeLa cells): 1770 nM; GI50 [6]: 542 nM; GI50 (DMS 114 cells): 2310 nM; GI50 [7]: 910 nM
C=CCn1cc(CC(NC(=O)C(OC)C2Cc3cc4cc(OC5CC(OC6CC(O)C(O)C(C)O6)C(O)C(C)O5)c(C)c(O)c4c(O)c3C(=O)C2OC2CC(OC3CC(OC4CC(C)(O)C(O)C(C)O4)C(O)C(C)O3)C(O)C(C)O2)C(=O)OC)c2ccccc21 (centres unmarked) [Analogue 47] | 2715 | 3140 | 1.2 | 
COC(=O)C(Cc1c[nH]c2cc3ccccc3cc12)NC(=O)C(OC)C1Cc2cc3cc(OC4CC(OC5CC(O)C(O)C(C)O5)C(O)C(C)O4)c(C)c(O)c3c(O)c2C(=O)C1OC1CC(OC2CC(OC3CC(C)(O)C(O)C(C)O3)C(O)C(C)O2)C(O)C(C)O1 (centres unmarked) [Analogue 57] | 3505 | > 10000 |  | fold decrease in activity in the TC-32 cell line ([3]; compared with the tryptophan parent): ~34 fold
COC(=O)C(Cc1c[nH]c2ccc([N+](=O)[O-])cc12)NC(=O)C(OC)C1Cc2cc3cc(OC4CC(OC5CC(O)C(O)C(C)O5)C(O)C(C)O4)c(C)c(O)c3c(O)c2C(=O)C1OC1CC(OC2CC(OC3CC(C)(O)C(O)C(C)O3)C(O)C(C)O2)C(O)C(C)O1 (centres unmarked) [Analogue 50] | 353 | 646 | 1.8 | 
CO[C@H](C(=O)O)[C@@H]1Cc2cc3cc(OC4CC(OC5CC(O)[C@H](O)C(C)O5)[C@H](O)C(C)O4)c(C)c(O)c3c(O)c2C(=O)[C@H]1OC1CC(OC2CC(OC3CC(C)(O)[C@H](O)C(C)O3)[C@@H](O)C(C)O2)[C@H](O)C(C)O1 (some centres unmarked) [MTMSA (2), Mithramycin SA, reference compound] | >10000 |  |  | GI50 ([8]; Homo sapiens, PC-3, 72 h): > 10000 nM
C=CCc1cccc2c(CC(NC(=O)C(OC)C3Cc4cc5cc(OC6CC(OC7CC(O)C(O)C(C)O7)C(O)C(C)O6)c(C)c(O)c5c(O)c4C(=O)C3OC3CC(OC4CC(OC5CC(C)(O)C(O)C(C)O5)C(O)C(C)O4)C(O)C(C)O3)C(=O)OC)c[nH]c12 (centres unmarked) [Analogue 53] | 794 | 2990 | 3.8 | 
COC(=O)C(Cc1c[nH]c2cc(C(F)(F)F)ccc12)NC(=O)C(OC)C1Cc2cc3cc(OC4CC(OC5CC(O)C(O)C(C)O5)C(O)C(C)O4)c(C)c(O)c3c(O)c2C(=O)C1OC1CC(OC2CC(OC3CC(C)(O)C(O)C(C)O3)C(O)C(C)O2)C(O)C(C)O1 (centres unmarked) [Analogue 55] | 2339 | 2400 | 1.0 | 
COC(=O)C(Cc1c[nH]c2c(-c3ccccc3)cccc12)NC(=O)C(OC)C1Cc2cc3cc(OC4CC(OC5CC(O)C(O)C(C)O5)C(O)C(C)O4)c(C)c(O)c3c(O)c2C(=O)C1OC1CC(OC2CC(OC3CC(C)(O)C(O)C(C)O3)C(O)C(C)O2)C(O)C(C)O1 (centres unmarked) [Analogue 52] | 2402 | > 10000 |  | 
COC(=O)C(Cc1ccc2ccccc2c1)NC(=O)C(OC)C1Cc2cc3cc(OC4CC(OC5CC(O)C(O)C(C)O5)C(O)C(C)O4)c(C)c(O)c3c(O)c2C(=O)C1OC1CC(OC2CC(OC3CC(C)(O)C(O)C(C)O3)C(O)C(C)O2)C(O)C(C)O1 (centres unmarked) [Analogue 58] | 541 | 1600 | 3.0 | 
COC(=O)C(Cc1c[nH]c2ccc(OC)cc12)NC(=O)C(OC)C1Cc2cc3cc(OC4CC(OC5CC(O)C(O)C(C)O5)C(O)C(C)O4)c(C)c(O)c3c(O)c2C(=O)C1OC1CC(OC2CC(OC3CC(C)(O)C(O)C(C)O3)C(O)C(C)O2)C(O)C(C)O1 (centres unmarked) [Analogue 49] | 675 | 617 | 0.9 | 

— patent publication US11224609B2, “Mithramycin derivatives having increased selectivity and anti-cancer activity” (University of Kentucky Research Foundation, priority 2017, dated 2022)
